{
  "source": "ChEMBL document CHEMBL3045439",
  "about": "“Isoforms of the heteropteran Nezara viridula ecdysone receptor: protein characterisation, RH5992 insecticide binding and homology modelling” (Pest Manag Sci, 2011)",
  "assay_type_in_all_cases": "protein-complex assay",
  "key": {"Ecdysone receptor [1]": {"target": "T1, Ecdysone receptor (Anthonomus grandis, UniProt B8RG26+Q4W6C8)", "T1 sequence (B8RG26 whole entry)": "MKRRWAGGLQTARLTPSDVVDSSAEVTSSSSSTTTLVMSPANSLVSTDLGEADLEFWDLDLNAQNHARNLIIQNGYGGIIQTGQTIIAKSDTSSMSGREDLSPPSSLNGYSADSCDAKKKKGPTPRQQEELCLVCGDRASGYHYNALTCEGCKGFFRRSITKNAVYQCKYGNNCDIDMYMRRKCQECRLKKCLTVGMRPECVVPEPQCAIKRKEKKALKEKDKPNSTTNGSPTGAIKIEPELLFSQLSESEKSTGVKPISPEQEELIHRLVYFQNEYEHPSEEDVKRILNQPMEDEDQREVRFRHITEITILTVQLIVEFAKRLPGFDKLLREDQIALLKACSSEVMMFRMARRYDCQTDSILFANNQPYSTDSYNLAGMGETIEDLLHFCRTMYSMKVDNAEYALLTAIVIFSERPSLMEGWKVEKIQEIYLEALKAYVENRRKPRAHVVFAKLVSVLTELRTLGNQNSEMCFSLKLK", "T1 sequence (Q4W6C8 whole entry)": "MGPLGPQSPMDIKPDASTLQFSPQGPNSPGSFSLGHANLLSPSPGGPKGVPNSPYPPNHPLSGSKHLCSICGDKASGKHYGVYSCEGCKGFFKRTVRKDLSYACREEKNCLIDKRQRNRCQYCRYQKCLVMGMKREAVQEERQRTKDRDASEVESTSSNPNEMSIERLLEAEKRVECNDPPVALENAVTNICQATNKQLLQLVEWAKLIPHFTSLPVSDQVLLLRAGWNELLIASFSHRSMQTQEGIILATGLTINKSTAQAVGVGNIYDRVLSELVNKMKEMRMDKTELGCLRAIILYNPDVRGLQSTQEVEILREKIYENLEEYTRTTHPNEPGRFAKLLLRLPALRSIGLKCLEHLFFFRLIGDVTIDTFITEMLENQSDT", "assay": "Binding affinity to Anthonomus grandis ecdysone receptor (EcR)"}, "Ecdysone receptor [2]": {"target": "T2, Ecdysone receptor (Choristoneura fumiferana, UniProt O76202+O77240)", "T2 sequence (O77240 whole entry)": "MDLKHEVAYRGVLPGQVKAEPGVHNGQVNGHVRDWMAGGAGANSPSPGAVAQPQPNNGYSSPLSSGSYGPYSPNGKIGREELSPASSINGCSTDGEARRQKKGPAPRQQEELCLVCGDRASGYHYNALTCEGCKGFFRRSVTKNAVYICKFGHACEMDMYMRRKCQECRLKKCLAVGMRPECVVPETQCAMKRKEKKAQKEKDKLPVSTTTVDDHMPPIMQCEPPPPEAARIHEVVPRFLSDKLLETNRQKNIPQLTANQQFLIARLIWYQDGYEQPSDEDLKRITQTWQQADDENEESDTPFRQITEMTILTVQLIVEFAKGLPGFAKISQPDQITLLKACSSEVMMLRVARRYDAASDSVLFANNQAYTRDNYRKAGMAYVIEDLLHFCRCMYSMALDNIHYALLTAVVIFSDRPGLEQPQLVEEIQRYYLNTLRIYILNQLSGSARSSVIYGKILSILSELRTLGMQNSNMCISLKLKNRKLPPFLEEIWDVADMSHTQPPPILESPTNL", "T2 sequence (O76202 whole entry)": "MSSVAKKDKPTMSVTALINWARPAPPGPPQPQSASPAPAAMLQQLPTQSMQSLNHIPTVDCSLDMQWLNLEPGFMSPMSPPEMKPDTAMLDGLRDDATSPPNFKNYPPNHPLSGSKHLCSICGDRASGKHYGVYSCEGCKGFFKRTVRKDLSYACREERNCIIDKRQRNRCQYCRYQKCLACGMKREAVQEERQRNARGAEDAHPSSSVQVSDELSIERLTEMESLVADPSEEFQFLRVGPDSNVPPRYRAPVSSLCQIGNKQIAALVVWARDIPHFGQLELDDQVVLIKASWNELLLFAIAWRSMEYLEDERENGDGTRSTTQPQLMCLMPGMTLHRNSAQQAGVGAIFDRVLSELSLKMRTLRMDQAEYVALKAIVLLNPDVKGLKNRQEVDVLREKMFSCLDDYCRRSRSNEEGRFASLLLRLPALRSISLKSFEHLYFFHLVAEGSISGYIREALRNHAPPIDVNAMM", "assay": "Binding affinity to Choristoneura fumiferana EcR"}, "Ecdysone receptor [3]": {"target": "T3, Ecdysone receptor (Chironomus tentans, UniProt O45117+P49882)", "T3 sequence (P49882 whole entry)": "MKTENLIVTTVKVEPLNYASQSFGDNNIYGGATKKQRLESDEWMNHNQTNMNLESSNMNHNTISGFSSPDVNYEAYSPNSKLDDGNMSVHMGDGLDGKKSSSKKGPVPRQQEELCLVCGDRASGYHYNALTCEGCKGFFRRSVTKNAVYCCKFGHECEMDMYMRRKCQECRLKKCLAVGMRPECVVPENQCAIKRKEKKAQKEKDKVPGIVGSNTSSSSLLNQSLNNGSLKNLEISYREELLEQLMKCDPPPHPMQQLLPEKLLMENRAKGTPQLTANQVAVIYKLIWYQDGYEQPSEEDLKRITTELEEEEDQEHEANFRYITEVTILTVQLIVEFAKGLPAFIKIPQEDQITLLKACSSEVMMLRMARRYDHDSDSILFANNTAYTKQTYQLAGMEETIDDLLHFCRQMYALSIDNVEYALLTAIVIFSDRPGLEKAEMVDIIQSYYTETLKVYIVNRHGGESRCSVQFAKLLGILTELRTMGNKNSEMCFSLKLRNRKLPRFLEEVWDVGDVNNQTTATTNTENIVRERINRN", "T3 sequence (O45117 whole entry)": "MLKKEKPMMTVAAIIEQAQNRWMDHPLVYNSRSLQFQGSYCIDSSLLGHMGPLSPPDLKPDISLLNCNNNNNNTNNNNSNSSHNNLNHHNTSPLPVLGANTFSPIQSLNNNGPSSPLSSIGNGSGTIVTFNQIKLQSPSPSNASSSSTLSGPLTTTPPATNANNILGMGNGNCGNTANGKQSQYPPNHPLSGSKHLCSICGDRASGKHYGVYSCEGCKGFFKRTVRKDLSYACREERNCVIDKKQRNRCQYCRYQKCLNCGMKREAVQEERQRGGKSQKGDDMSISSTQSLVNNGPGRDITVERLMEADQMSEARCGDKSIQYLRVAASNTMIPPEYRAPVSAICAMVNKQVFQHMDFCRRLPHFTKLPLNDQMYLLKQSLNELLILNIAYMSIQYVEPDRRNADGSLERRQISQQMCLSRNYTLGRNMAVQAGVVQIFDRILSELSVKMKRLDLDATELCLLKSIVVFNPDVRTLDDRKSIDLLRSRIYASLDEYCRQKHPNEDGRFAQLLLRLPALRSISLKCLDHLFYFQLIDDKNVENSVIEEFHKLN", "assay": "Binding affinity to Chironomus tentans EcR"}},
  "data": [
    {"smiles": "CCc1ccc(C(=O)NN(C(=O)c2cc(C)cc(C)c2)C(C)(C)C)cc1", "note": "[TEBUFENOZIDE]", "values": [
      {"measurement": "Ki", "setting": "Ecdysone receptor [1]", "result": 12.6, "unit": "µM"},
      {"measurement": "Ki", "setting": "Ecdysone receptor [2]", "result": 0.000501, "unit": "µM"},
      {"measurement": "Ki", "setting": "Ecdysone receptor [3]", "result": 0.01, "unit": "µM"}
    ]}
  ]
}
